EC50 data for seven compounds are collected here from US20260365646A1, “AKT1 MODULATORS” (Alterome Therapeutics, Inc., priority 2022, published 2026).

Molecules are shown by their SMILES. Where only a bound is given, the exact number is not on record here.

For one assay, the target named is T1, full length AKT E17K (Homo sapiens, UniProt P31749, E17K).
T1 construct: host or cells: HEK-293 (ATCC CRL-1573)
T1 sequence (P31749 whole entry E17K): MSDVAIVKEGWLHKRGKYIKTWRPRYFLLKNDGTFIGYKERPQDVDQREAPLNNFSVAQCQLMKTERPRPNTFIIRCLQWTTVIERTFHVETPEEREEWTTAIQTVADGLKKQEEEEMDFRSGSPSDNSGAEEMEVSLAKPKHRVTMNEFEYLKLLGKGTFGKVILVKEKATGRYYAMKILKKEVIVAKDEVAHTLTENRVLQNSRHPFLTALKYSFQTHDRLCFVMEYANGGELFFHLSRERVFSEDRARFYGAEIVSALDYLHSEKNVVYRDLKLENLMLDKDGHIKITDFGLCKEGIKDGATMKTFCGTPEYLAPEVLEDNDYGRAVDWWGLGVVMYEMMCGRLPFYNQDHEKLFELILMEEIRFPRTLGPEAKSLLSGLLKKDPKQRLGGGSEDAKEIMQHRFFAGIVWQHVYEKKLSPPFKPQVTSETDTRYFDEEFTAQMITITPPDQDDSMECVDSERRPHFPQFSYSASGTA
Description: NanoBRET Target Engagement (TE) Intracellular Kinase Assay. It counts as cell-based.
Conditions: not given
In short, it runs like this: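 Live-cell BRET assay: cells expressing NanoLuc-fused full-length AKT E17K incubated 2 h with tracer at target-optimized concentration plus compound. BRET read at 450 nm donor/600 nm acceptor with extracellular NanoLuc inhibitor. EC50 from sigmoidal variable-slope fit of tracer displacement.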
On the technique in general: Bioluminescence resonance energy transfer reports proximity on the nanometre scale.
One may read the EC50 as the concentration giving half of the maximal effect. Regarding `Nc1ncccc1-c1nc2ccc(-c3ccccc3)nc2n1-c1ccc(CNC(=O)c2cccc(Nc3c(O)c(=O)c3=O)c2)cc1` [Example 43, N-(4-(2-(2-Aminopyridin-3-yl)-5-phenyl-3H-imidazo[4,5-b]pyridin-3-yl)benzyl)-3-((2-hydroxy-3,4-dioxocyclobut-1-en-1-yl)amino)benzamide], the EC50 is > 600 nM.
In turn, `COc1c(N2CCN(Cc3ccc(-n4c(-c5cccnc5N)nc5ccc(-c6ccccc6)nc54)cc3)C[C@@H]2CO)c(=O)c1=O` [Example 79, (R)-3-(4-(4-(2-(2-aminopyridin-3-yl)-5-phenyl-3H-imidazo[4,5-b]pyridin-3-yl)benzyl)-2-(hydroxymethyl)piperazin-1-yl)-4-methoxycyclobut-3-ene-1,2-dione] yielded an EC50 of 60 to 600 nM.
On the same count and under the same terms, with `Nc1ncccc1-c1nc2ccc(-c3ccccc3)nc2n1-c1ccc(CN2CCC(N3CCCOc4c3c(=O)c4=O)CC2)cc1` [Example 84, 6-(1-(4-(2-(2-aminopyridin-3-yl)-5-phenyl-3H-imidazo[4,5-b]pyridin-3-yl)benzyl)piperidin-4-yl)-2-oxa-6-azabicyclo[5.2.0]non-1(7)-ene-8,9-dione] the figure was > 600 nM.

The same assay, now with this note: read-out: NanoBRET AKT1E17K EC50; HEK-293 cells transfected with NanoLuc-AKT E17K; competitive displacement of NanoBRET tracer; 2 hr equilibration; 10-point 3-fold dilution.
Take `CCSc1c(N2C[C@H]3CN(Cc4ccc(-n5c(-c6cccnc6N)nc6ccc(-c7ccccc7)nc65)cc4)C[C@H]3C2)c(=O)c1=O` [Example 88, 3-((3aR,6aS)-5-(4-(2-(2-aminopyridin-3-yl)-5-phenyl-3H-imidazo[4,5-b]pyridin-3-yl)benzyl)hexahydropyrrolo[3,4-c]pyrrol-2(1H)-yl)-4-(ethylthio)cyclobut-3-ene-1,2-dione]: the EC50 is < 15 nM.
In the case of `COc1c(NC2CCN(Cc3ccc(-n4c(-c5cccnc5N)nc5cc(-c6ccccc6)cnc54)cc3)CC2)c(=O)c1=O` [Example 10, 3-((1-(4-(2-(2-Aminopyridin-3-yl)-6-phenyl-3H-imidazo[4,5-b]pyridin-3-yl)benzyl)piperidin-4-yl)amino)-4-methoxycyclobut-3-ene-1,2-dione], the EC50 is < 15 nM.
With `CCN(c1c(OC)c(=O)c1=O)C1CCN(Cc2ccc(-n3c(-c4cccnc4N)nc4ccc(-c5ccccc5)nc43)cc2)CC1` [Example 91, 3-((1-(4-(2-(2-aminopyridin-3-yl)-5-phenyl-3H-imidazo[4,5-b]pyridin-3-yl)benzyl)piperidin-4-yl)(ethyl)amino)-4-methoxycyclobut-3-ene-1,2-dione], the EC50 was < 15 nM.
Same read-out and setting: with `COc1c(N2CC[C@]3(CCN(Cc4ccc(-n5c(-c6cccnc6N)nc6ccc(-c7ccccc7)nc65)cc4)C3)C2)c(=O)c1=O` [Example 66, (S)-3-(7-(4-(2-(2-aminopyridin-3-yl)-5-phenyl-3H-imidazo[4,5-b]pyridin-3-yl)benzyl)-2,7-diazaspiro[4.4]nonan-2-yl)-4-methoxycyclobut-3-ene-1,2-dione] the figure was < 15 nM.
